Measured values: US20250255304A1, “HIGHLY TRA[…] CONTROLLING COMPOSITION” (ZM Crop Protection Corporation, priority 2022, published 2025)

Assays:
Assay type in all cases: in vivo
[1] = system: Coptotermes formosanus Shiraki; experiment: Test Example 1: effect of agent on gypsum treated with test agent solution; settings: dicloromezotiaz 0.023%, imidacloprid 0.1%, fipronil 0.03% test agent solution on gypsum
Procedure: A test agent solution containing 0.023 parts of dicloromezotiaz was prepared by adding 99.875 parts of water to 0.125 parts of the aqueous suspension composition shown in Formulation Example 1.
In a comparative example, an aqueous suspension composition prepared by adding an agent solution, wherein 99 parts of water was added to 1 part of a flowable containing 10.0 parts of imidacloprid and which contained 0.1 parts of imidacloprid and a drug solution, wherein 299 parts of water was added to 1 part of a flowable containing 9.1 parts of fipronil and which contained 0.03 parts of fipronil, uniformly mixing same was used as a test agent solution of a comparative example.
As the imidacloprid formulation and the fipronil formulation, commercially available termite controlling agents were used and diluted solutions at practical agent concentrations thereof were used as test agent solutions.
Gypsum was cured and spread in a glass petri dish having a diameter of 90 mm, 15 ml of each of the test agent solution of the example and the test agent solution of the comparative example was uniformly dropped on the entire surface of the gypsum. Thereafter, ten workers of Coptotermes formosanus Shiraki were released into the petri dish and the petri dish was covered and left to stand in a thermostatic chamber (25° C./relative humidity 60%).
The number of abnormal termites and the number of dead termites among the released termites (Coptotermes formosanus Shiraki) were observed every one hour from immediately after the release of the termites (Coptotermes formosanus Shiraki) until ten hours passed and the total number of the abnormal termite rate and the dead termite rate was calculated as the abnormal or dead termite rate (%) according to [Expression 1] below and the rates of expression of the effects of the respective agents were compared. Each test agent was prepared in one petri dish as one plot and the test was carried out in two replicates.

[2] = system: Coptotermes formosanus Shiraki; experiment: Test Example 3: extirpation test with dust formulation using simulated termite trails
[3] = system: Coptotermes formosanus Shiraki; experiment: Test Example 2: secondary transmission treatment effect
Procedure: (§1) A test agent solution containing 0.023 parts of dicloromezotiaz was prepared by adding 99.875 parts of water to 0.125 parts of the aqueous suspension composition shown in Formulation Example 1. As comparative examples, four types of commercially available neonicotinoid termite controlling agents and four types of slow-acting termite controlling agents shown in Table 2 were diluted with water at practical concentrations to prepare test agent solutions. The “agent concentration (%)” indicates the concentration of the active ingredient contained in each of the composition of the present invention and the termite controlling agents and the “test agent solution concentration (%)” indicates the concentration of the active ingredient in each of the prepared test agent solutions.
(§2) After 1.2 g of each of the test agent solutions of the example and the comparative examples diluted to a predetermined concentration and prepared was added to 4.8 g of soil, 6 g of the mixed soil was spread in a glass petri dish having a diameter of 50 mm and ten workers of Coptotermes formosanus Shiraki were released into the petri dish and exposed to the agent solution for 4 hours.

[4] = system: Coptotermes formosanus Shiraki; experiment: Test Example 2: primary transmission treatment effect
Procedure: as §1, §2

## Cc1cccn2c(=O)c(-c3cc(Cl)cc(Cl)c3)c([O-])[n+](Cc3cnc(Cl)s3)c12 [Dicloromezotiaz, dicloromezotiaz]
[1]; time elapsed 1 h
  Abnormal or dead termite rate (%): 0%
[1]; time elapsed 2 h
  Abnormal or dead termite rate (%): 0%
[1]; time elapsed 3 h
  Abnormal or dead termite rate (%): 0%
[1]; time elapsed 4 h
  Abnormal or dead termite rate (%): 0%
[1]; time elapsed 5 h
  Abnormal or dead termite rate (%): 0%
[1]; time elapsed 6 h
  Abnormal or dead termite rate (%): 19%
[1]; time elapsed 7 h
  Abnormal or dead termite rate (%): 37%
[1]; time elapsed 8 h
  Abnormal or dead termite rate (%): 51%
[1]; time elapsed 9 h
  Abnormal or dead termite rate (%): 78%
[1]; time elapsed 10 h
  Abnormal or dead termite rate (%): 100%
[2]; active ingredient concentration 0.10%, 1 h
  Abnormal or dead termite rate (%): 0%
[2]; active ingredient concentration 0.10%, 2 h
  Abnormal or dead termite rate (%): 0%
[2]; active ingredient concentration 0.10%, 3 h
  Abnormal or dead termite rate (%): 0%
[2]; active ingredient concentration 0.10%, 4 h
  Abnormal or dead termite rate (%): 25%
[2]; active ingredient concentration 0.10%, 5 h
  Abnormal or dead termite rate (%): 35%
[2]; active ingredient concentration 0.10%, 6 h
  Abnormal or dead termite rate (%): 40%
[2]; active ingredient concentration 0.10%, 7 h
  Abnormal or dead termite rate (%): 40%
[2]; active ingredient concentration 0.10%, 1 day
  Abnormal or dead termite rate (%): 85%
[2]; active ingredient concentration 0.10%, 2 days
  Abnormal or dead termite rate (%): 100%
[2]; active ingredient concentration 0.10%, 3 days
  Abnormal or dead termite rate (%): 100%
[2]; active ingredient concentration 0.10%, 7 days
  Abnormal or dead termite rate (%): 100%
[2]; active ingredient concentration 0.25%, 1 h
  Abnormal or dead termite rate (%): 0%
[2]; active ingredient concentration 0.25%, 2 h
  Abnormal or dead termite rate (%): 0%
[2]; active ingredient concentration 0.25%, 3 h
  Abnormal or dead termite rate (%): 25%
[2]; active ingredient concentration 0.25%, 4 h
  Abnormal or dead termite rate (%): 25%
[2]; active ingredient concentration 0.25%, 5 h
  Abnormal or dead termite rate (%): 60%
[2]; active ingredient concentration 0.25%, 6 h
  Abnormal or dead termite rate (%): 100%
[2]; active ingredient concentration 0.25%, 7 h
  Abnormal or dead termite rate (%): 100%
[2]; active ingredient concentration 0.25%, 1 day
  Abnormal or dead termite rate (%): 100%
[2]; active ingredient concentration 0.25%, 2 days
  Abnormal or dead termite rate (%): 100%
[2]; active ingredient concentration 0.25%, 3 days
  Abnormal or dead termite rate (%): 100%
[2]; active ingredient concentration 0.25%, 7 days
  Abnormal or dead termite rate (%): 100%
[2]; active ingredient concentration 0.5%, 1 h
  Abnormal or dead termite rate (%): 0%
[2]; active ingredient concentration 0.5%, 2 h
  Abnormal or dead termite rate (%): 0%
[2]; active ingredient concentration 0.5%, 3 h
  Abnormal or dead termite rate (%): 45%
[2]; active ingredient concentration 0.5%, 4 h
  Abnormal or dead termite rate (%): 45%
[2]; active ingredient concentration 0.5%, 5 h
  Abnormal or dead termite rate (%): 100%
[2]; active ingredient concentration 0.5%, 6 h
  Abnormal or dead termite rate (%): 100%
[2]; active ingredient concentration 0.5%, 7 h
  Abnormal or dead termite rate (%): 100%
[2]; active ingredient concentration 0.5%, 1 day
  Abnormal or dead termite rate (%): 100%
[2]; active ingredient concentration 0.5%, 2 days
  Abnormal or dead termite rate (%): 100%
[2]; active ingredient concentration 0.5%, 3 days
  Abnormal or dead termite rate (%): 100%
[2]; active ingredient concentration 0.5%, 7 days
  Abnormal or dead termite rate (%): 100%
[2]; active ingredient concentration 1%, 1 h
  Abnormal or dead termite rate (%): 0%
[2]; active ingredient concentration 1%, 2 h
  Abnormal or dead termite rate (%): 30%
[2]; active ingredient concentration 1%, 3 h
  Abnormal or dead termite rate (%): 85%
[2]; active ingredient concentration 1%, 4 h
  Abnormal or dead termite rate (%): 85%
[2]; active ingredient concentration 1%, 5 h
  Abnormal or dead termite rate (%): 100%
[2]; active ingredient concentration 1%, 6 h
  Abnormal or dead termite rate (%): 100%
[2]; active ingredient concentration 1%, 7 h
  Abnormal or dead termite rate (%): 100%
[2]; active ingredient concentration 1%, 1 day
  Abnormal or dead termite rate (%): 100%
[2]; active ingredient concentration 1%, 2 days
  Abnormal or dead termite rate (%): 100%
[2]; active ingredient concentration 1%, 3 days
  Abnormal or dead termite rate (%): 100%
[2]; active ingredient concentration 1%, 7 days
  Abnormal or dead termite rate (%): 100%
[3]; after 1 day, Table 5, dicloromezotiaz 0.023%, fipronil 0.03%, imidacloprid 0.10%, chlorantraniliprole 0.05% solution in soil
  Abnormal or dead termite rate (%): 8.9%
[3]; after 1 day, Table 6, dicloromezotiaz 0.023%, chlorfenapyr 0.11%, clothianidin 0.05%, dinotefuran 0.20%, thiamethoxam 0.10%, broflanilide 0.03% solution in soil
  Abnormal or dead termite rate (%): 2.2%
[3]; after 3 days, Table 5, dicloromezotiaz 0.023%, fipronil 0.03%, imidacloprid 0.10%, chlorantraniliprole 0.05% solution in soil
  Abnormal or dead termite rate (%): 83%
[3]; after 3 days, Table 6, dicloromezotiaz 0.023%, chlorfenapyr 0.11%, clothianidin 0.05%, dinotefuran 0.20%, thiamethoxam 0.10%, broflanilide 0.03% solution in soil
  Abnormal or dead termite rate (%): 44%
[3]; after 7 days, Table 5, dicloromezotiaz 0.023%, fipronil 0.03%, imidacloprid 0.10%, chlorantraniliprole 0.05% solution in soil
  Abnormal or dead termite rate (%): 91%
[3]; after 7 days, Table 6, dicloromezotiaz 0.023%, chlorfenapyr 0.11%, clothianidin 0.05%, dinotefuran 0.20%, thiamethoxam 0.10%, broflanilide 0.03% solution in soil
  Abnormal or dead termite rate (%): 88%
[3]; after 14 days, Table 5, dicloromezotiaz 0.023%, fipronil 0.03%, imidacloprid 0.10%, chlorantraniliprole 0.05% solution in soil
  Abnormal or dead termite rate (%): 91%
[3]; after 14 days, Table 6, dicloromezotiaz 0.023%, chlorfenapyr 0.11%, clothianidin 0.05%, dinotefuran 0.20%, thiamethoxam 0.10%, broflanilide 0.03% solution in soil
  Abnormal or dead termite rate (%): 88%
[3]; after 21 days, Table 5, dicloromezotiaz 0.023%, fipronil 0.03%, imidacloprid 0.10%, chlorantraniliprole 0.05% solution in soil
  Abnormal or dead termite rate (%): 92%
[3]; after 21 days, Table 6, dicloromezotiaz 0.023%, chlorfenapyr 0.11%, clothianidin 0.05%, dinotefuran 0.20%, thiamethoxam 0.10%, broflanilide 0.03% solution in soil
  Abnormal or dead termite rate (%): 84%
[4]; after 1 day, Table 3, dicloromezotiaz 0.023%, fipronil 0.03%, imidacloprid 0.10%, chlorantraniliprole 0.05% solution in soil
  Abnormal or dead termite rate (%): 100%
[4]; after 1 day, Table 4, dicloromezotiaz 0.023%, chlorfenapyr 0.11%, clothianidin 0.05%, dinotefuran 0.20%, thiamethoxam 0.10%, broflanilide 0.03% solution in soil
  Abnormal or dead termite rate (%): 100%
[4]; after 3 days, Table 3, dicloromezotiaz 0.023%, fipronil 0.03%, imidacloprid 0.10%, chlorantraniliprole 0.05% solution in soil
  Abnormal or dead termite rate (%): 100%
[4]; after 3 days, Table 4, dicloromezotiaz 0.023%, chlorfenapyr 0.11%, clothianidin 0.05%, dinotefuran 0.20%, thiamethoxam 0.10%, broflanilide 0.03% solution in soil
  Abnormal or dead termite rate (%): 100%
[4]; after 7 days, Table 3, dicloromezotiaz 0.023%, fipronil 0.03%, imidacloprid 0.10%, chlorantraniliprole 0.05% solution in soil
  Abnormal or dead termite rate (%): 100%
[4]; after 7 days, Table 4, dicloromezotiaz 0.023%, chlorfenapyr 0.11%, clothianidin 0.05%, dinotefuran 0.20%, thiamethoxam 0.10%, broflanilide 0.03% solution in soil
  Abnormal or dead termite rate (%): 100%
[4]; after 14 days, Table 3, dicloromezotiaz 0.023%, fipronil 0.03%, imidacloprid 0.10%, chlorantraniliprole 0.05% solution in soil
  Abnormal or dead termite rate (%): 100%
[4]; after 14 days, Table 4, dicloromezotiaz 0.023%, chlorfenapyr 0.11%, clothianidin 0.05%, dinotefuran 0.20%, thiamethoxam 0.10%, broflanilide 0.03% solution in soil
  Abnormal or dead termite rate (%): 100%
[4]; after 21 days, Table 3, dicloromezotiaz 0.023%, fipronil 0.03%, imidacloprid 0.10%, chlorantraniliprole 0.05% solution in soil
  Abnormal or dead termite rate (%): 100%
[4]; after 21 days, Table 4, dicloromezotiaz 0.023%, chlorfenapyr 0.11%, clothianidin 0.05%, dinotefuran 0.20%, thiamethoxam 0.10%, broflanilide 0.03% solution in soil
  Abnormal or dead termite rate (%): 100%
